Measured values published in US20070088069A1, “Novel imidazoles” (Warner-Lambert Company LLC, priority 2005, published 2007).

Legend:
[1] = test system: Sterol Biosynthesis in L6 Rat Myoblast; assay: Sterol biosynthesis in L6 rat myoblast (14C acetic acid into cholesterol); format: cell-based; conditions: 3 hours pre-incubation, 3 hours 14C acetic acid labeling
Description: L6 rat myoblast purchased from ATCC(CRL-1458) were grown in T-150 vented culture flasks and seeded on 12-well culture plates at a density of 60,000 cells per well. The cells were grown in DMEM, (Dulbecco's Modified Eagle Medium) (Gibco, #10567-014) containing 10% heat inactivated FBS (Fetal Bovine Serum) (Gibco # 10082-139) for 72 hours until reaching confluence. The cells were pre-incubated in media with compound and 0.2% DMSO (dimethyl sulfoxide) for 3 hours and then labeled by incubating in medium containing compound, 0.2% DMSO and 1 μCi/per mL of ^14C acetic acid for an additional 3 hours. After labeling, the cells were washed once with 1×PBS (Gibco #14190-144) then lysed overnight at 4° C. in buffer containing 10% KOH and 78% (vol.) ethanol.
Lipid ester bonds were hydrolyzed by saponification of the lysates at 60° C. for 2 hours. […] The amount of ^14C cholesterol was quantified by scintillation counting in a Trilux 1450 plate reader (Wallac). The IC50 values were calculated from % inhibitions relative to negative controls vs. compound concentration on Microsoft excel 2000 data analysis wizard using a sigmoid inhibition curve model with formula: y=Bmax(1−(x^n/K^n+x^n))+y2 Where K is the IC50 for the inhibition curve, X is inhibitor concentration, Y is the response being inhibited and Bmax+Y2 is the limiting response as X approaches zero.

[2] = biological target: T1, HMGCoA (3-Hydroxy-3-methylglutaryl CoA) Reductase (Rattus norvegicus, UniProt P51639); assay: HMGCoA reductase assay with rat liver microsomes; format: biochemical; conditions: 14C-HMGCoA, 45 min at 37° C., read-out: IC50 in the in vitro HMGCoA reductase assay
T1 construct: from tissue; host or cells: liver microsomes of male Sprague-Dawley rats fed cholestyramine
T1 sequence (P51639 1-887): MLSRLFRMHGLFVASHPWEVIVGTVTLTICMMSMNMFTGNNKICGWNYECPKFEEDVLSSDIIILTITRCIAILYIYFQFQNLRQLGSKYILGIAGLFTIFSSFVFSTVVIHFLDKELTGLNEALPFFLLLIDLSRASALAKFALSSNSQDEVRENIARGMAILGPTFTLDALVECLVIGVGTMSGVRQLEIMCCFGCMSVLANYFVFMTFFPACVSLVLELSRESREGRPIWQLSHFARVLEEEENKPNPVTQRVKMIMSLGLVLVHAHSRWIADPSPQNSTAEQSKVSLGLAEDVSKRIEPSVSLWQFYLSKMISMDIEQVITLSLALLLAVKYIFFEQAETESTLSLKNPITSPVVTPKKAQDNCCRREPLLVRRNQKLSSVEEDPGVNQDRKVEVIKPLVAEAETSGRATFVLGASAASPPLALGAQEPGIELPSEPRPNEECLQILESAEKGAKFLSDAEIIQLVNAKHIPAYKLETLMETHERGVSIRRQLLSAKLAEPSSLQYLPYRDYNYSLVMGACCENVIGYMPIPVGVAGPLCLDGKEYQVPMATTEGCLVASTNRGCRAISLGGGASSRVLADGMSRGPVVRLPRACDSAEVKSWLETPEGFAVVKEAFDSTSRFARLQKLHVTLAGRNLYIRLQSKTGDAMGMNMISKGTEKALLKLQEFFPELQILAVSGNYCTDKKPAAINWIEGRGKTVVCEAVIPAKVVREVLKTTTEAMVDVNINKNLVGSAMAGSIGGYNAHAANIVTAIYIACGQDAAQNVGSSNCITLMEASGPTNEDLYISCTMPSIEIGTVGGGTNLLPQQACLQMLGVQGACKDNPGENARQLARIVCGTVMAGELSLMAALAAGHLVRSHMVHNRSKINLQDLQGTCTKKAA
Description: Male Charles River Sprague-Dawley rats were fed with 2.5% cholestyramine in rat chow diets for 5 days before sacrificing. Livers were minced and homogenized in a sucrose homogenizing solution in an ice bath 10 times. Homogenates were diluted into a final volume of 200 mL, and centrifuged 15 min. with a Sorvall Centrifuge at 5° C., 10,000 rpm (12,000×G). The upper fat layer was removed and the supernatant decanted into fresh tubes. This step was repeated one more time before transferring the supernatant into ultracentrifuge tubes and centrifuged at 36,000 rpm (105,000×G) for an hour at 5° C. The resulting supernatant was discarded and the pellet was added to total of 15 mL 0.2 M KH2PO4. Pellets were homogenized gently by hand about 10 times. Samples were pooled and diluted into total of 60 mL buffer. The protein concentration of the homogenate was determined by the […] using a BCA (Bicinchoninic acid), kit from Pierce Chemical Company. 1 mL aliquots of microsomes were kept frozen in liquid nitrogen.
[3-^14C]-HMGCoA (57.0 mCi/mmol) was purchased from Amersham Biosciences, UK. […] Scintillation cocktail (Ultima-Flo-M) was added into each well and plates counted on a Trilux Microbeta Counter. The IC50 values were calculated with GraphPad software (Prism). […]

[3] = test system: Sterol Biosynthesis in Rat Hepatocytes; assay: Sterol biosynthesis in rat hepatocytes (14C acetic acid into cholesterol); format: cell-based; conditions: Hepatocyte, 4 hrs pre-incubation, 4 hrs 14C acetic acid labeling, read-out: IC50 in the cell assay (sterol biosynthesis in rat hepatocytes)
Description: Frozen rat hepatocytes purchased from XenoTech (cat# N400572) were seeded on 6-well collagen I coated plates at a density of 10^5 cells/per well. The cells were grown in DMEM, (Dulbecco's Modified Eagle Medium) (Gibco, #11054-020) containing 10% FBS (Fetal Bovine Serum) and 10 mM HEPES, (N-2-hydroxyethyl-piperazine-N^1-2-ethane sulfonic acid) (Gibco # 15630-080) for 24 hrs. The cells were pre-incubated with compounds for 4 hrs and then labeled by incubating in medium containing 1 μCi/per mL of ^14C acetic acid for an additional 4 hrs. After labeling, the cells were washed twice with 5 mM MOPS, (3-[N-morpholino]propane sulfonic acid) solution containing 150 mM NaCl and 1 mM EDTA and collected in the lysis buffer containing 10% KOH and 80% (vol.) ethanol.
In order to separate labeled cholesterol from labeled non-cholesterol lipids, the cells lysates were subject to saponification at 60° C. for 2 hrs. The lysates were then combined with 0.5 volume of H2O and 2 volumes of hexane, followed by 30 minutes of vigorous shaking. After the separation of two phases, the upper-phase solution was collected and combined with 5 volumes of scintillation cocktail. The amount of ^14C cholesterol was quantified by liquid scintillation counting. The IC50 values were calculated with GraphPad software (Prism 3.03).

Question: How did the IC50 [1] turn out when `C[C@@H](NC(=O)c1nc(-c2ccc(F)cc2)n(CC[C@@H](O)C[C@@H](O)CC(=O)O)c1C1CC1)c1ccccc1` [Example 1, Sodium: (3R,5R)-7-[5-Cyclopropyl-2-(4-fluoro-phenyl)-4-((R)-1-Phenyl-ethylcarbamoyl)-imidazol-1-yl]-3,5-dihydroxy-heptanoate] was run?
Answer: 449 nM

Question: `C[C@H](c1ccccc1)N(C)C(=O)c1nc(-c2ccc(F)cc2)n(CC[C@@H](O)C[C@@H](O)CC(=O)O)c1C1CC1` [Example 2, Sodium; (3R,5R)-7-{5-Cyclopropyl-2-(4-fluoro-phenyl)-4-[methyl-((R)-1-phenyl-ethyl)-carbamoyl]-imidazol-1-yl}-3,5-dihydroxy-heptanoate] was tested. Which IC50 [2] did it give?
Answer: 36.8 nM

Question: What about the IC50 [3] of the same molecule?
Answer: 0.27 nM
